Data taken from PMC7377239, “Cardiovascular Effects of Polychlorinated Biphenyls and Their Major Metabolites” (Environmental Health Perspectives, 2020).
Like-named read-outs stand apart in the source and are kept apart here.

Legend:
[1] = system: iCell endothelial cells (human iPSC-derived ECs); experiment: High-content imaging cytotoxicity in iCell endothelial cells, 24 h; format: cell-based; conditions: Homo sapiens, Endothelial cell, iPSC-EC, 24 hr; for viability at 0.1 µM / activity at 0.1 µM: 0.10 µM; for minimal effective concentration: top concentration 100.00 µM
How it was run: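 Readouts were vehicle-normalised and fitted to a four-parameter logistic model. POD was set at one SD beyond 0.5% DMSO control means, and 100 µM was assigned when no response was seen. Cells were monolayers of iCell endothelial cells imaged after 24 h compound exposure using nuclear, mitochondrial and calcein dyes.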

HUVECs = experiment: Tube formation (tubulogenesis) assay in HUVECs, 18 h; format: cell-based, human; conditions: Homo sapiens, HUVEC, 18 h, HUVECs; for activity at 0.1 µM: 0.10 µM; for minimal effective concentration: top concentration 100.00 µM
How it was run: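 HUVECs (passage 1–5) seeded on reduced-growth-factor basement membrane and exposed to compounds overnight at 37°C, 5% CO2, in 2× maintenance medium with 12.5 ng/mL VEGF; 0.5% DMSO vehicle. Calcein AM-stained tube networks imaged and analysed; vehicle-normalized readouts fit to four-parameter logistic, POD set at one SD of vehicle means.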

[2] = 0.00 µM control = 100.00, read-out: endo.cyto.24hr
[3] = 0.00 µM control = 100.00, read-out: endo.mito.24hr
[4] = 0.00 µM control = 100.00, read-out: endo.mitoint.24hr
[5] = 0.00 µM control = 100.00, read-out: endo.nma.24hr
[6] = 0.00 µM control = 100.00, read-out: endo.tc.24hrs
[7] = 0.00 µM = 100.00, read-out: huvec.mtl.18hr
[8] = 0.00 µM = 100.00, read-out: huvec.tlps.18hr
[9] = 0.00 µM = 100.00, read-out: huvec.tta.18hr
[10] = 0.00 µM = 100.00, read-out: huvec.ttl.18hr

Compound: Oc1ccc(O)c(-c2ccc(Cl)cc2)c1 [2',5'-DiOH PCB3]
- viability at 0.01 µM [1, 2]: 90.8%
- activity at 0.01 µM [1, 3]: 91.1%
- activity at 0.01 µM [1, 4]: 127%
- activity at 0.01 µM [1, 5]: 103%
- viability at 0.01 µM [1, 6]: 90.8%
- viability at 0.1 µM [1, 2]: 93.4%
- activity at 0.1 µM [1, 3]: 94%
- activity at 0.1 µM [1, 4]: 109%
- activity at 0.1 µM [1, 5]: 101%
- viability at 0.1 µM [1, 6]: 93.5%
- viability at 1 µM [1, 2]: 99.2%
- activity at 1 µM [1, 3]: 99.2%
- activity at 1 µM [1, 4]: 104%
- activity at 1 µM [1, 5]: 98.6%
- viability at 1 µM [1, 6]: 99.2%
- viability at 10 µM [1, 2]: 86.5%
- activity at 10 µM [1, 3]: 86.6%
- activity at 10 µM [1, 4]: 108%
- activity at 10 µM [1, 5]: 101%
- viability at 10 µM [1, 6]: 86.5%
- viability at 100 µM [1, 2]: 12.2%
- activity at 100 µM [1, 3]: 2.34%
- activity at 100 µM [1, 4]: 28.7%
- activity at 100 µM [1, 5]: 184%
- viability at 100 µM [1, 6]: 17%
- minimal effective concentration ([1]; read-out: endo.cyto.24hr POD): 6.71 µM
- minimal effective concentration ([1]; read-out: endo.mito.24hr POD): 6.71 µM
- minimal effective concentration ([1]; read-out: endo.mitoint.24hr POD): 44.6 µM
- minimal effective concentration ([1]; read-out: endo.nma.24hr POD): 13.7 µM
- minimal effective concentration ([1]; read-out: endo.tc.24hrs POD): 5.78 µM
- activity at 0.01 µM (HUVECs; [7]): 99%
- activity at 0.01 µM (HUVECs; [8]): 90.3%
- activity at 0.01 µM (HUVECs; [9]): 127%
- activity at 0.01 µM (HUVECs; [10]): 123%
- activity at 0.1 µM (HUVECs; [7]): 104%
- activity at 0.1 µM (HUVECs; [8]): 135%
- activity at 0.1 µM (HUVECs; [9]): 107%
- activity at 0.1 µM (HUVECs; [10]): 107%
- activity at 1 µM (HUVECs; [7]): 91.9%
- activity at 1 µM (HUVECs; [8]): 93.2%
- activity at 1 µM (HUVECs; [9]): 87.2%
- activity at 1 µM (HUVECs; [10]): 90.1%
- activity at 10 µM (HUVECs; [7]): 64.1%
- activity at 10 µM (HUVECs; [8]): 21.9%
- activity at 10 µM (HUVECs; [9]): 19.3%
- activity at 10 µM (HUVECs; [10]): 19.9%
- activity at 100 µM (HUVECs; [7]): 57.8%
- activity at 100 µM (HUVECs; [8]): 9.87%
- activity at 100 µM (HUVECs; [9]): 0.82%
- activity at 100 µM (HUVECs; [10]): 1.52%
- minimal effective concentration (HUVECs; read-out: huvec.mtl.18hr POD): 1.26 µM
- minimal effective concentration (HUVECs; read-out: huvec.tlps.18hr POD): 1.55 µM
- minimal effective concentration (HUVECs; read-out: huvec.tta.18hr POD): 1.39 µM
- minimal effective concentration (HUVECs; read-out: huvec.ttl.18hr POD): 1.23 µM
